Test results: patent US10953029B2, “4′-Substituted nucleoside reverse transcriptase inhibitors and preparations thereof” (Merck Sharp & Dohme Corp., priority 2015, dated 2021)
Where two headings read alike, the source gives them in different places.

How the values were obtained:
[1] = target: T1, HIV-1 RT enzyme (Human immunodeficiency virus type 1 group M subtype B, UniProt P04585); assay: RT Polymerase Assay; type: biochemical
T1 construct: Full-length wild-type and 2 mutant RT proteins were expressed in Escherichia coli BL21(DE3) cells and purified; made in house; host or cells: Escherichia coli BL21(DE3)
Protocol: Full-length wild-type and 2 mutant RT proteins were expressed in Escherichia coli BL21(DE3) cells and purified. Briefly, the heterodimeric nucleic acid substrate used in the HIV-1 RT polymerase reactions was generated by annealing biotinylated DNA primer to a 500 nucleotide RNA template. The HIV-1 RT enzyme (final concentration of 50 pM) was combined with an inhibitor compound or DMSO (10% DMSO in the final reaction mixture) in assay buffer (62.5 mM Tris-HCl, pH 7.8, 1.25 mM dithiothreitol, 7.5 mM MgCl2, 100 mM KCl, 0.03% CHAPS, 0.125 mM EGTA). This mixture was pre-incubated for 30 minutes at room temperature in microtiter plates. The polymerization reaction was initiated by the addition of template/primer substrate (final concentration: 16.6 nM) and dNTPs (final concentration: 2 μM dCTP, dGTP, dATP, and 66.6 nM Ru-dUTP). After 90 min of incubation at 37° C., reactions were quenched by the addition of EDTA (25 mM). The resulting mixture was incubated for an additional 5 minutes at room temperature followed by transferring the solution (50 μL) to blocked avidin plate from Meso Scale Discovery (MSD). The mixtures were incubated at room temperature for 60 min prior to the quantification of the reaction product via an ECL 6000 imager instrument.

[2] = target: T2, adenosine deaminase (ADA) type 1 (Homo sapiens, UniProt P00813); assay: Adenosine Deaminase (ADA) Half-Life; type: in vitro ADME; conditions: human ADA type 1 (adenosine deaminase) in Tris-HCl buffer, time for 50% conversion to inosine product, Tris-HCl buffer pH 7.5, 40° C., LCMS
T2 sequence (P00813 1-363): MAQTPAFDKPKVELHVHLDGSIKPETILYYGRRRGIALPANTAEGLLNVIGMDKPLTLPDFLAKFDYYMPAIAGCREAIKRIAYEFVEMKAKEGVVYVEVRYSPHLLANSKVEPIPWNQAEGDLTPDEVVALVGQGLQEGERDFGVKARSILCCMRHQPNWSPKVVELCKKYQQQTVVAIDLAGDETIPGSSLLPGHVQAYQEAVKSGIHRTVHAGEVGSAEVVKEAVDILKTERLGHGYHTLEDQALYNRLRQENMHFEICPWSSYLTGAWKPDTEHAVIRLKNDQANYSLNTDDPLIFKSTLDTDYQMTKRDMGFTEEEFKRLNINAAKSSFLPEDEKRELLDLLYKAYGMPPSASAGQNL
Protocol: The data in Table 4 was generated by testing the reactivity of the substrate compound with human ADA type 1 in the presence of Tris-HCl buffer (pH 7.5) at 40° C. and monitoring by LCMS for consumption of starting material. The time necessary for 50% conversion to the corresponding inosine product is noted as the T1/2 in Table 4. It is known that deamination by adenosine deaminase decreases the therapeutic potential of adenosine-like nucleoside inhibitors especially in vivo (see references below). […] It is possible that compounds that are more resistant to ADA will have better pharmacokinetic properties.

[3] = system: wild-type HIV-1-GFP virus; assay: Antiviral Persistence in Human Peripheral Blood Mononuclear Cells (PBMC); type: cell-based; conditions: Human immunodeficiency virus 1, PBMC
Protocol: PBMCs were obtained from Biological Specialty Corporation, activated with 5 μg/ml PHA-P (Sigma L1668) for 72 hrs, and then washed with fresh medium. Following activation, PBMCs were cultured in media containing 10 IU/ml IL-2 (Roche 11011456001). Cells were treated with a titration of compound for 6 or 24 hrs and washed with fresh medium. To evaluate persistence of antiviral activity following wash-out, PBMCs were maintained for either 24 h or 72 h and then infected by adding wild-type HIV-1-GFP virus (17 μL/well) to the plates and incubating at 37° C./5% CO2/90% relative humidity. Infected cells were quantified at 24 h post-infection by counting the number of green cells in each well using an Acumen eX3 scanner. EC50 values in Table 3 were calculated by non-linear 4-parameter curve fitting.
The antiviral persistence assay is meant to assess for the persistence of antiviral activity upon removal of the nucleoside. […] The publication AIDS Research and Therapy, 2009, 6:5, highlights the value of antiviral persistence.

[4] = system: HIV-1 (H9IIIB virus); assay: Viking Assay: antiviral potency in a multiple round HIV-1 infection assay (MT4-GFP cells); type: cell-based; conditions: Human immunodeficiency virus 1, 10% normal human serum, read-out: Viking, EC50 (10% NHS)
Protocol: Assessing antiviral potency in a multiple round HIV-1 infection assay. HIV-1 replication was monitored using MT4-gag-GFP clone D3 (hereafter designate MT4-GFP), which are MT-4 cells modified to harbor a GFP reporter gene, the expression of which is dependent on the HIV-1 expressed proteins tat and rev. Productive infection of an MT4-GFP cell with HIV-1 results in GFP expression approximately 24 h post-infection.
MT4-GFP cells were maintained at 37° C./5% CO2/90% relative humidity in RPMI 1640 supplemented with 10% fetal bovine serum, 100 U/mL penicillin/streptomycin, and 400 μg/mL G418 to maintain the reporter gene. For infections, MT4-GFP cells were placed in the same medium lacking G418 and infected overnight with H9IIIB virus at an approximate multiplicity of infection of 0.01 in the same incubation conditions. Cells were then washed and re-suspended in either RPMI 1640 containing 10% or 50% normal human serum at 1.6×10^5 cells/mL (10% or 50% NHS conditions) or in 100% normal human serum at 2×10^5 cells/mL (100% NHS conditions). […]
Infected cells were quantified at two time points, ˜48 h and ˜72 h post-infection, by counting the number of green cells in each well using an Acumen eX3 scanner. […] Inhibition of R0 is calculated for each well, and EC50s determined by non-linear 4-parameter curve fitting.

[5] = system: wild-type and multi-drug resistant HIV-1 strains; conditions: cited from earlier work

half-life [2] [h]	Compound	EC50 ([3]; 24 h, read-out: EC50 24 h) [nM]	EC50 ([3]; 72 h, read-out: EC50 72 h) [nM]	EC50 [4] [nM]	other results
	C#C[C@]1(COP(=O)(O)OP(=O)(O)OP(=O)(O)O)O[C@@H](n2cc(F)c3c(N)nc(Cl)nc32)C[C@@H]1O [Example 2, ammonium ((2R,3S,5R)-5-(4-amino-2-chloro-5-fluoro-7H-pyrrolo[2,3-d]pyrimidin-7-yl)-2-ethynyl-3-hydroxytetrahydrofuran-2-yl)methyl triphosphate]				IC50 [1]: 490 nM
< 1	C#C[C@]1(CO)O[C@@H](n2cnc3c(N)ncnc32)C[C@@H]1O [EDA, (2R,3S,5R)-5-(6-amino-9H-purin-9-yl)-2-ethynyl-2-(hydroxymethyl)tetrahydrofuran-3-ol]				
	C#C[C@]1(CO)O[C@@H](n2cc(F)c3c(N)nc(Cl)nc32)C[C@@H]1O [Example 1, (2R,3S,5R)-5-(4-amino-2-chloro-5-fluoro-7H-pyrrolo[2,3-d]pyrimidin-7-yl)-2-ethynyl-2-(hydroxymethyl)tetrahydrofuran-3-ol]	0.38	3.8	1.2	half-life ([2]; value given as symbol): > 240 h
< 0.167	Nc1ncnc2c1ncn2[C@H]1C[C@H](O)[C@@H](CO)O1 [Deoxy- adenosine, deoxyadenosine]				
	Cc1cn([C@H]2C[C@H](N=[N+]=[N-])[C@@H](CO)O2)c(=O)[nH]c1=O [AZT, 3′-azido-3′-deoxythymidine]	19	68	37	
	C#C[C@]1(CO)O[C@@H](n2cnc3c(N)nc(F)nc32)C[C@@H]1O [EFdA, (2R,3S,5R)-5-(6-amino-2-fluoro-9H-purin-9-yl)-2-ethynyl-2-(hydroxymethyl)tetrahydrofuran-3-ol]				antiviral activity [5]: potent antiviral activity
